Assay results: PubChem BioAssay AID330 (DTP/NCI, 2004)
Values joined by “and” are separate entries in the source; they are usually repeats but may differ in a detail not shown here. Equal entries are not always repeated. Inconclusive results and toxic doses are left out. The calls were made as follows: active = survival T/C of 150% or more; inactive = T/C below 125% in these data.

Test system: P388 leukemia ip, CD2F1 mice, survival T/C
Test: NCI In Vivo Anticancer Drug Screen. Data for tumor model P388 Leukemia (intraperitoneal) in CD2F1 (CDF1) mice
Conditions: endpoint: median survival time, higher = longer survival
How it was run: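 Mice carrying the transplanted tumor received test compound or vehicle. Survival was recorded in each group, and the value is the treated-group measurement divided by that of the vehicle-treated control group.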

[1] = dose: 25.0 mg/kg/injection, schedule: Q01DX005 (ip), vehicle: Klucel (hydroxypropylcellulose) (HPC)
[2] = dose: 50.0 mg/kg/injection, schedule: Q01DX005 (ip), vehicle: Klucel (hydroxypropylcellulose) (HPC)
[3] = dose: 100.0 mg/kg/injection, schedule: Q01DX005 (ip), vehicle: saline with Tween-80
[4] = dose: 200.0 mg/kg/injection, schedule: Q01DX005 (ip), vehicle: saline with Tween-80
[5] = dose: 50.0 mg/kg/injection, schedule: Q01DX005 (ip), vehicle: saline with Tween-80
[6] = dose: 25.0 mg/kg/injection, schedule: Q01DX009 (ip), vehicle: Klucel (hydroxypropylcellulose) (HPC)
[7] = dose: 50.0 mg/kg/injection, schedule: Q01DX009 (ip), vehicle: Klucel (hydroxypropylcellulose) (HPC)
[8] = dose: 100.0 mg/kg/injection, schedule: Q01DX009 (ip), vehicle: Klucel (hydroxypropylcellulose) (HPC)
[9] = dose: 200.0 mg/kg/injection, schedule: Q01DX009 (ip), vehicle: Klucel (hydroxypropylcellulose) (HPC)
[10] = dose: 400.0 mg/kg/injection, schedule: Q01DX009 (ip), vehicle: Klucel (hydroxypropylcellulose) (HPC)
[11] = dose: 100.0 mg/kg/injection, schedule: Q01DX005 (ip), vehicle: Klucel (hydroxypropylcellulose) (HPC)
[12] = dose: 200.0 mg/kg/injection, schedule: Q01DX005 (ip), vehicle: Klucel (hydroxypropylcellulose) (HPC)
[13] = dose: 50.0 mg/kg/injection, schedule: Q01DX009 (ip), vehicle: saline with Tween-80
[14] = dose: 100.0 mg/kg/injection, schedule: Q01DX009 (ip), vehicle: saline with Tween-80

Measured: T/C

CN=C1SC(C)(C)NN1C
inactive: dose: 12.5 mg/kg/injection, schedule: Q01DX005 (ip), vehicle: Klucel (hydroxypropylcellulose) (HPC) 104 % of control | [1] 104 % of control | [2] 101 % of control and 114 % of control

O=C1OCCOCCOCCOCCOC1=O
inactive: dose: 100.0 mg/kg/injection, schedule: Q04DX003 (ip), vehicle: saline 96 % of control | dose: 200.0 mg/kg/injection, schedule: Q04DX003 (ip), vehicle: saline 101 % of control | dose: 400.0 mg/kg/injection, schedule: Q04DX003 (ip), vehicle: saline 104 % of control

Nc1ccc(NCCCC2CCCN3CCCCC23)c2c(=O)c3ccccc3sc12 (stereo not given)
inactive: dose: 13.5 mg/kg/injection, schedule: Q01DX005 (ip), vehicle: saline with Tween-80 104 % of control | dose: 27.0 mg/kg/injection, schedule: Q01DX005 (ip), vehicle: saline with Tween-80 91 % of control | dose: 54.0 mg/kg/injection, schedule: Q01DX005 (ip), vehicle: saline with Tween-80 101 % of control | [3] 110 % of control | dose: 108.0 mg/kg/injection, schedule: Q01DX005 (ip), vehicle: saline with Tween-80 107 % of control | [4] 120 % of control

C=C1C(=O)OC2/C=C(\COC(C)=O)CCC(OC(C)=O)C3=CC(OC3=O)C12 (stereo not given)
inactive: dose: 1.87 mg/kg/injection, schedule: Q01DX009 (ip), vehicle: Klucel (hydroxypropylcellulose) (HPC) 95 % of control | dose: 3.75 mg/kg/injection, schedule: Q01DX009 (ip), vehicle: Klucel (hydroxypropylcellulose) (HPC) 102 % of control | dose: 7.5 mg/kg/injection, schedule: Q01DX009 (ip), vehicle: Klucel (hydroxypropylcellulose) (HPC) 96 % of control | dose: 15.0 mg/kg/injection, schedule: Q01DX009 (ip), vehicle: Klucel (hydroxypropylcellulose) (HPC) 117 % of control

CC1(C)OC(=O)C=C1Sc1ccccc1
inactive: [5] 100 % of control | [3] 105 % of control | [4] 105 % of control

CCOC(=O)c1ccc(N=C=S)cc1
inactive: dose: 6.25 mg/kg/injection, schedule: Q01DX009 (ip), vehicle: distilled water + Tween-80 100 % of control | dose: 12.5 mg/kg/injection, schedule: Q01DX009 (ip), vehicle: distilled water + Tween-80 100 % of control | dose: 25.0 mg/kg/injection, schedule: Q01DX009 (ip), vehicle: distilled water + Tween-80 100 % of control and 111 % of control | dose: 50.0 mg/kg/injection, schedule: Q01DX009 (ip), vehicle: distilled water + Tween-80 117 % of control | dose: 100.0 mg/kg/injection, schedule: Q01DX009 (ip), vehicle: distilled water + Tween-80 109 % of control

CN(C)C1C(=O)C(C(N)=O)=C(O)C2(O)C(=O)C3=C(O)c4c(O)cccc4C(C)(O)C3CC12.O.O.O.[Al] (stereo not given)
inactive: [6] 95 % of control | [5] 99 % of control | [7] 92 % of control | [3] 99 % of control | [8] 103 % of control | [4] 99 % of control | [9] 106 % of control | [10] 107 % of control

CSC1=C(C#N)C(=O)N=S(C)(C)=N1
inactive: [5] 108 % of control | [3] 110 % of control | [4] 100 % of control

O=C(OCCCN1CCCC1)C(c1ccccc1)C1C=CCC1 (stereo not given)
inactive: dose: 6.25 mg/kg/injection, schedule: Q01DX009 (ip), vehicle: Klucel (hydroxypropylcellulose) (HPC) 100 % of control | dose: 12.5 mg/kg/injection, schedule: Q01DX009 (ip), vehicle: Klucel (hydroxypropylcellulose) (HPC) 98 % of control | [6] 100 % of control | [7] 101 % of control | [8] 95 % of control | [9] 100 % of control | [10] 100 % of control

O=C1OC(c2ccccc2)(c2ccccc2)c2cc3c(cc21)C(c1ccccc1)(c1ccccc1)OC3=O
inactive: dose: 100.0 mg/kg/injection, schedule: Q01DX001 (ip), vehicle: saline 93 % of control | dose: 200.0 mg/kg/injection, schedule: Q01DX001 (ip), vehicle: saline 93 % of control | dose: 400.0 mg/kg/injection, schedule: Q01DX001 (ip), vehicle: saline 92 % of control

[CH3][Sn]([c]1ccccc1)([c]1cccc2ccccc12)[c]1cccc2ccccc12
inactive: dose: 100.0 mg/kg/injection, schedule: Q04DX003 (ip), vehicle: saline with Tween-80 89 % of control | dose: 200.0 mg/kg/injection, schedule: Q04DX003 (ip), vehicle: saline with Tween-80 91 % of control | dose: 400.0 mg/kg/injection, schedule: Q04DX003 (ip), vehicle: saline with Tween-80 88 % of control

Ic1ncn(CCN2CCOCC2)c1I
inactive: [1] 88 % of control | [2] 97 % of control | [11] 94 % of control | [12] 97 % of control

CC1(C)OC(=O)C=C[C@]2(C)[C@H]3CC[C@]4(C)C(=CCC4c4ccoc4)[C@]3(C)[C@H](O)C[C@@H]12 (stereo not given in full)
inactive: dose: 11.25 mg/kg/injection, schedule: Q01DX005 (ip), vehicle: Klucel (hydroxypropylcellulose) (HPC) 101 % of control | dose: 22.5 mg/kg/injection, schedule: Q01DX005 (ip), vehicle: Klucel (hydroxypropylcellulose) (HPC) 98 % of control | dose: 45.0 mg/kg/injection, schedule: Q01DX005 (ip), vehicle: Klucel (hydroxypropylcellulose) (HPC) 94 % of control | dose: 90.0 mg/kg/injection, schedule: Q01DX005 (ip), vehicle: Klucel (hydroxypropylcellulose) (HPC) 98 % of control | dose: 180.0 mg/kg/injection, schedule: Q01DX005 (ip), vehicle: Klucel (hydroxypropylcellulose) (HPC) 91 % of control

c1ccc2c(c1)oc1cc3c(cc12)nnc1cccn13
inactive: [1] 100 % of control | [2] 96 % of control | [11] 92 % of control | [12] 86 % of control

CCCCCCCCCCC(O)C(=O)O (stereo not given)
inactive: [13] 95 % of control | [14] 89 % of control

C=C1C(=O)OC2/C=C(\C)CC/C=C(/C(=O)OC)C(OC(=O)C(C)C(C)O)C(OC(=O)C(C)(O)C(C)O)C12 (stereo not given)
inactive: dose: 6.0 mg/kg/injection, schedule: Q01DX009 (ip), vehicle: Klucel (hydroxypropylcellulose) (HPC) 122 % of control | dose: 8.0 mg/kg/injection, schedule: Q01DX009 (ip), vehicle: Klucel (hydroxypropylcellulose) (HPC) 122 % of control | dose: 12.0 mg/kg/injection, schedule: Q01DX009 (ip), vehicle: Klucel (hydroxypropylcellulose) (HPC) 105 % of control

CCOC(=O)c1ccc2[nH]c(-c3ccc(S(=O)(=O)F)cc3)cc(=O)c2c1
inactive: dose: 12.5 mg/kg/injection, schedule: Q01DX009 (ip), vehicle: saline with Tween-80 87 % of control | dose: 25.0 mg/kg/injection, schedule: Q01DX009 (ip), vehicle: saline with Tween-80 93 % of control | [13] 96 % of control | [14] 93 % of control

O=C1C(Cc2ccccc2)C(=O)N2c3ccccc3C=CC2N1c1ccccc1 (stereo not given)
inactive: dose: 60.0 mg/kg/injection, schedule: Q01DX005 (ip), vehicle: Klucel (hydroxypropylcellulose) (HPC) 98 % of control | dose: 120.0 mg/kg/injection, schedule: Q01DX005 (ip), vehicle: Klucel (hydroxypropylcellulose) (HPC) 97 % of control | dose: 240.0 mg/kg/injection, schedule: Q01DX005 (ip), vehicle: Klucel (hydroxypropylcellulose) (HPC) 89 % of control

CC1CCCN2C(=O)CN(Cc3ccccc3)CC(=O)N12 (stereo not given)
inactive: [5] 100 % of control | [3] 100 % of control | [4] 100 % of control

CC(O)C(=O)O (stereo not given)
inactive: dose: 0.06 % in 0.5 ml injection vol, schedule: Q01DX009 (ip), vehicle: water 98 % of control and 100 % of control | dose: 0.12 % in 0.5 ml injection vol, schedule: Q01DX009 (ip), vehicle: water 107 % of control and 95 % of control | dose: 0.25 % in 0.5 ml injection vol, schedule: Q01DX009 (ip), vehicle: water 93 % of control | dose: 0.5 % in 0.5 ml injection vol, schedule: Q01DX009 (ip), vehicle: water 99 % of control and 100 % of control | dose: 4.0 % in 0.5 ml injection vol, schedule: Q01DX009 (ip), vehicle: water 100 % of control | dose: 8.0 % in 0.5 ml injection vol, schedule: Q01DX009 (ip), vehicle: water 99 % of control and 100 % of control

C=C(COC(=O)/C=C\C)C(=O)OCC
inactive: dose: 50.0 mg/kg/injection, schedule: Q01DX009 (ip), vehicle: saline 106 % of control | dose: 100.0 mg/kg/injection, schedule: Q01DX009 (ip), vehicle: saline 99 % of control | dose: 200.0 mg/kg/injection, schedule: Q01DX009 (ip), vehicle: saline 106 % of control
